Patent publication US6566397B2, “Acyclic isoprenoid ether derivatives as chemotherapeutics” (Wisconsin Alumni Research Foundation, priority 2000, dated 2003)
Like-named read-outs stand apart in the source and are kept apart here.

Assays:
[1] = tested on: Human HL-60 acute promyelocytic leukemia cells; assay: Growth of human HL-60 leukemia cells in suspension culture, viable cell count by hemocytometer; assay type: cell-based; conditions: human HL-60 promyelocytic leukemia cells, 24 hours; read-out: IC50, inhibition of net increase in cell count
Procedure: Human HL-60 acute promyelocytic leukemia cells (CCL-240, ATCC) were grown in suspension culture (25 cm^2 flasks) in 8 mL RPMI 1640 medium with 20% FBS and 2% penicillin/streptomycin. Cultures, seeded with 1.25×10^8 cells/L, were incubated with test agents for 24 hours at 37° C. in a humidified atmosphere of 5% CO2. The cells were then collected by centrifugation (250×g) and re-suspended in HBSS. Viable cells, cells that excluded 0.4% trypan blue, were counted with a hemocytometer; 0-time (seeding) cell counts were deducted from final cell counts to provide an estimate of the net increase in cell number.
(§1) The IC50 value represents the concentration of an isoprenoid required to inhibit the net increase in cell count by 50% at a time point within the linear growth period plotted for control cells. We determined the IC50 value by plotting cell number against isoprenoid concentration.

[2] = tested on: Murine B16 F10 melanoma cells; assay: Growth of murine B16 F10 melanoma cells in monolayer culture, viable cell count by hemocytometer, photomicrographs; assay type: cell-based; conditions: for apoptosis: 5 μmol/L, B16 melanoma cells, photomicrographs; for IC50: read-out: IC50, inhibition of net increase in cell count
Procedure: Murine B16 F10 melanoma cells (He, L., et al., supra, 1997) were grown in monolayer culture (35×10 mm tissue culture dishes) in 3 ml RPMI 1640 medium (Sigma Biosciences, St. Louis, Mo.) supplemented with 10% fetal bovine serum (FBS, Sigma Biosciences) and 2% penicillin/streptomycin (Penicillin-Streptomycin Liquid, 1×10^7 units penicilin and 1×10^7 μg streptomycin/L of 0.85% saline, GIBCO BRL, Grand Island, N.Y.). Cultures, seeded with 3.3×10^4 cells/mL, were incubated for 24 hours at 37° C. in a humidified atmosphere of 5% CO2. The medium was decanted and replaced with fresh medium containing the test agents and incubations were continued for 48 hours. M363 and M364 were dissolved in ethanol, and lovastatin (Mevinolin, Sigma) in chloroform. […] The medium and detached (apoptotic) cells were decanted, the monolayer was washed twice with Hanks' Balanced Salt Solution (HBSS, Sigma Biosciences) and then incubated with a trypsin-EDTA solution (Sigma Biosciences) at 37° C. for 2 minutes. Trypsin was inactivated by suspending the cells in medium containing 10% FBS. The trypsinized cells were harvested by centrifugation (250×g) and re-suspended in HBSS. Viable cells, cells that excluded 0.4% trypan blue (GIBCO BRL), were counted with a hemocytometer; 0-time (24-h) cell counts were deducted from final cell counts to provide an estimate of the net increase in cell number.
Photomicrographs (100×, 200× and 400×) of representative fields of cultures of B16 melanoma cells were made with a Labopot-2 microscope (Nikon, Japan) equipped with a SenSys digital camera (Photometrics Tucson, Ariz.) and image-acquisition software (MetaMorph Imaging Systems, Universal Imaging Corporation, West Chester, Pa.).
as §1

[3] = Screening of acyclic isoprenoid esters for tumor-suppressive activity in vitro; assay type: cell-based
Source text: (§2) We synthesized and tested a series of esters formed between acyclic isoprenoid alcohols (geraniol, farnesol, nerol, citronellol) and diverse acids (proprionate, isobutyrate, formate, butyrate, caprylate, isovalerate, benzoate, tiglate, anthranilate). […] See Mo, et al. Cancer Letters 157:145-153, 2000 (incorporated by reference).

[4] = tested on: pancreatic tumors implanted in Syrian Golden hamsters; conditions: 90 mmol/kg diet; cited from earlier work
[5] = tested on: implanted B16 melanomas; assay: Growth of implanted B16 melanomas, agent in diet; assay type: in vivo
Source text: as §2
We note that the farnesyl moiety of the test agent comprised trans, trans and cis, trans isomers. […] The prospect of a chemotherapeutic application of […] is dimmed by findings that its very potent tumor-suppressive action is markedly attenuated by […], an essential dietary constituent (Qureshi, A., et al., J. Nutr. 126:389-394, 1996).

[6] = tested on: murine B16 melanoma cells
[7] = tested on: Murine B16(F10) melanoma cells; assay: CellTiter 96 Aqueous One Solution Cell Proliferation Assay; assay type: cell-based; conditions: 40 hour growth of B16 melanoma cells, 1000 cells/well; read-out: IC50, net absorbance at 490 nm
Procedure: Murine B16(F10) melanoma cells were grown in monolayer culture (96-well tissue culture plate, Fisher Scientific) in 0.1 mL of RPMI 1640 medium (Sigma) supplemented with 10% fetal bovine serum (Sigma) and 80 mg/L of gentamycin (Sigma). Cultures were seeded in triplicate (0 to 2450 cells/well with an increment of 350 cells) and incubated for 24 hours or 64 hours at 37° C. in a humidified atmosphere of 5% CO2. At 24 hours the medium was decanted from each well and replaced with fresh medium. Cell populations of all wells were determined at either 24 hours (0 time, 3 wells) or 64 hours (40 hours, all other wells) by adding 20 μl of CellTiter 96® Aqueous One Solution (Promega, Madison, Wis.) to each well; the plate was held in dart at 37° C. for 2 hours and then read at 490 nm with a SPECTRAmax® 190 multi-plate reader with SOFTmax® PRO (Molecular Devices, Sunnyvale, Calif.). The net absorbance, the difference between the 0 time and 40 hours values, plotted on cell inoculation density is linear to 2000 cells/well (FIG. 6). We then applied this optical method to the estimation of the IC50 for M364.
Plates seeded with 1000 cells/well, the midpoint of cell inoculation density (FIG. 6), were cultured as described above. The medium added at 24 hours (0 time) to experimental wells contained 0-10 μmol/L M364 ([4-(3,7,11-trimethyl-2,6,10-dodecatrienyloxy]-phenyl acetate).

[8] = M364 dietary toxicity study in mice; assay type: in vivo, C57BL6 female mice
Procedure: M364 toxicity and efficacy studies are in progress. Weanling C57BL6 female mice (Harlan Sprague Dawley, Madison, Wis.) are housed in groups of five to six on Cellu-Dri bedding (Waldschmidt & Sons, Inc., Madison, Wis.) in stainless steel cages and maintained at 25° C. with a 12-hour light:dark cycle. Three groups of mice (11/group) are being fed AIN-93G diet supplemented with 0 (A, control), 1 (B) and 10 (C) mmol M364/kg diet. Food intakes for mice are recorded daily and mice are weighed on alternate days. Results to date are mixed. […] As a consequence, the body weight of these mice decreased from 13.6 to 11.7 g; on removing the agent (M364) from the diet the mice rapidly regained body weight.

[9] = tested on: implanted B16 melanomas; conditions: cited from earlier work
[10] = murine melanoma B16 cells, 48 hours, hemocytometer

With CC(=O)Oc1ccc(OCC=C(C)CCC=C(C)C)cc1 [M363, [4-(3,7-dimethyl-2,6-octadienyloxy]-phenyl acetate] the IC50 [1] was 58.6 ± 2.3 µM, the apoptosis [2] was “initiated apoptosis” and the IC50 [2, 10] was 5.1 ± 0.8 µM.

For C/C=C(\C)C(=O)OCC=C(C)CCC=C(C)CCC=C(C)C [farnesyl tiglate], the “tumor-suppressive activity in vitro” value [3] was “significant tumor-suppressive activity”.

In the case of CC(C)=CCCC(C)=CCCC(C)=CCO [farnesol], the “growth of implanted pancreatic tumors” value [4] is listed as “suppressed the growth”.

In the case of CC(C)=CCCC(C)=CCCC(C)=CCOC(=O)c1ccccc1N [farnesyl anthranilate], the IC50 [1] is reported as 80 ± 10 µM, the “tumor-suppressive activity in vitro” value [3] is reported as “significant tumor-suppressive activity” and the “morphological changes of cells” value ([2]; 100 μmol/L, B16 cells, 400× photomicrograph FIG. 4F) is reported as “morphological changes similar to those attained with 10 μmol M364”. For the same compound, the IC50 ([2]; Mus musculus, 48 h) was 45 ± 6 µM, the “growth of implanted B16 melanomas” value ([5]; 1.5 mmol/kg diet) was “substantially suppressed the growth” and the “effect of dietary α-tocopherol on the agent's action” value ([5]; dietary α-tocopherol) was “did not compromise”.

For CC(C)=CCC/C(C)=C/COC(=O)c1ccccc1 [geranyl benzoate], the “tumor-suppressive activity in vitro” value [3] was “significant tumor-suppressive activity”.

For CC(C)=CCC/C(C)=C/COC(=O)c1ccccc1N [geranyl anthranilate], the “tumor-suppressive activity in vitro” value [3] was “significant tumor-suppressive activity”.

For CC[C@H](C)C(=O)O[C@H]1C[C@@H](C)C=C2C=C[C@H](C)[C@H](CC[C@@H]3C[C@@H](O)CC(=O)O3)[C@H]21 [lovastatin], the “increase in portion of cells in G1” value ([6]; lovastatin 0.75 μmol/L) was 33% and the “suppression of cell growth” value ([2]; lovastatin 0.75 μmol/L, B16 cells) was 25%.

With CC(=O)Oc1ccc(OCC=C(C)CCC=C(C)CCC=C(C)C)cc1 [M364, [4-(3,7,11-trimethyl-2,6,10-dodecatrienyloxy]-phenyl acetate] the IC50 [7] was 2.2 µM, the IC50 [1] was 4.9 ± 3.7 µM and the “increase in proportion of cells in G1” value ([6]; M364 1 μmol/L) was 33%. For the same compound, the “body weight and general appearance” value ([8]; 1 mmol M364/kg diet) was “match the controls”, the “general condition of mice” value ([8]; 10 mmol M364/kg diet) was “remained healthy and active” and the food intake ([8]; 10 mmol M364/kg diet, 6 day exposure) was “decreased”. The “body weight after exposure to diet” value ([8]; 10 mmol M364/kg diet, 6 day exposure, decreased from 13.6 g, regained on removing agent) was 11.7 g, the apoptosis [2] was “initiated apoptosis” and the “suppression of cell growth” value ([2]; M364 1 μmol/L, B16 cells) was 45%. It also gave an IC50 [2, 10] of 2 ± 0.6 µM.

With C/C=C(\C)C(=O)OC/C=C(\C)CCC=C(C)C [geranyl tiglate] the “tumor-suppressive activity in vitro” value [3] was “significant tumor-suppressive activity”.

For CC(C)=CCCC(C)=CCCC(C)=CCOC(=O)c1ccccc1 [farnesyl benzoate], the “tumor-suppressive activity in vitro” value [3] was “significant tumor-suppressive activity”.

For CC(C)=CCC/C(C)=C/CC/C(C)=C/CC[C@]1(C)CCc2cc(O)c(C)c(C)c2O1 [γ-tocotrienol], the “growth of implanted B16 melanomas” value ([9]; 0.116 mmol/kg diet) is given as “suppressed the growth” and the “efficacy in suppressing growth of implanted melanomas relative to farnesol” value ([9]; <1 mmol/kg diet) is given as roughly 100 ×.
